Measured values taken from publication PMC6091977, “The permeation mechanism of organic cations through a CNG mimic channel” (PLoS Computational Biology, 2018).

What was measured:
NaK2CNG-E chimera = experiment: crystal structure; sitting drop vapor diffusion at 20°C, 40-44% MPD, 100 mM MES pH 6.5, 25 mM glycine; protein purified in DM with DMA·HCl; space group P222_(1); tetramers AABB and CCDD built by two-fold crystallographic symmetry
[1] = target: T1, CNGA1 channel (bovine CNGA1, bCNGA1) (Bos taurus, UniProt Q00194); experiment: excised-patch voltage clamp; current activation; assay type: biochemical; parameters: full-length CNGA1 expressed alone from cRNA in Xenopus laevis oocytes; excised patches; settings: agonist at 1 mM; DMA as charge carrier; pH 7.4
T1 sequence (Q00194 1-690): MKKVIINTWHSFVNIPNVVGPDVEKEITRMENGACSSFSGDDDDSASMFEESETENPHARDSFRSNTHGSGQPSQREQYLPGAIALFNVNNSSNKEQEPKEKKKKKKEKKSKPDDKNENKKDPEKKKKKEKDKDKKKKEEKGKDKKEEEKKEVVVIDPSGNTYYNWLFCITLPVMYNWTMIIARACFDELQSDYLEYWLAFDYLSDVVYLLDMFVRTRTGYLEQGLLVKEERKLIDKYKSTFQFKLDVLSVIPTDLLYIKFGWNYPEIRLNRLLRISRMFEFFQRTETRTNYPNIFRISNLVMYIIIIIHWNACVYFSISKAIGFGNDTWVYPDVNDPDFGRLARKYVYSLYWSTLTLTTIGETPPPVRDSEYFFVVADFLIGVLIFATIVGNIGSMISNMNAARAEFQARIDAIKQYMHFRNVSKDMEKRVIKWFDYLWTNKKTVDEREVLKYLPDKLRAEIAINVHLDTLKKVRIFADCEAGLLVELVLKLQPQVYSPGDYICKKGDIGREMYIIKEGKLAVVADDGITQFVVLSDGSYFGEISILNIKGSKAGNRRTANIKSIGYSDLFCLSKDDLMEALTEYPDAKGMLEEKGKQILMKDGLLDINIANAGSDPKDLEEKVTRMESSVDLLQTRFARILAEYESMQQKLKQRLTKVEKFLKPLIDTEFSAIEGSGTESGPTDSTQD

[2] = target: T1, CNGA1 channel (bovine CNGA1, bCNGA1); experiment: cell-based

Molecule: NaK2CNG-E chimera
- stoichiometry N (NaK2CNG-E chimera): 4

Molecule: Nc1nc2c(ncn2[C@@H]2O[C@@H]3COP(=O)(O)O[C@H]3[C@H]2O)c(=O)[nH]1 [cGMP]
- excised-patch voltage clamp; current activation [1]: The cGMP activated current was measured as the difference between the current recorded in the presence

Molecule: CNC [DMA, dimethylammonium]
- Kd [2]: 52 mM
